According to patent US11234979B2, “Heteroaryl compounds as muscarinic M1 receptor positive allosteric modulators” (SUVEN LIFE SCIENCES LIMITED, priority 2017, dated 2022):

Tests used:
[1] = molecular target: T1, recombinant human Muscarinic M1 receptor (Homo sapiens, UniProt P11229); assay: Allosteric potency EC50 for Muscarinic M1 receptor, CHO pCRE-Luc reporter assay with EC20 of acetylcholine; assay type: cell-based; conditions: CHO cells, in presence of EC20 of acetylcholine, 4 hours
T1 construct: expressed in transfected cells
T1 sequence (P11229 1-460): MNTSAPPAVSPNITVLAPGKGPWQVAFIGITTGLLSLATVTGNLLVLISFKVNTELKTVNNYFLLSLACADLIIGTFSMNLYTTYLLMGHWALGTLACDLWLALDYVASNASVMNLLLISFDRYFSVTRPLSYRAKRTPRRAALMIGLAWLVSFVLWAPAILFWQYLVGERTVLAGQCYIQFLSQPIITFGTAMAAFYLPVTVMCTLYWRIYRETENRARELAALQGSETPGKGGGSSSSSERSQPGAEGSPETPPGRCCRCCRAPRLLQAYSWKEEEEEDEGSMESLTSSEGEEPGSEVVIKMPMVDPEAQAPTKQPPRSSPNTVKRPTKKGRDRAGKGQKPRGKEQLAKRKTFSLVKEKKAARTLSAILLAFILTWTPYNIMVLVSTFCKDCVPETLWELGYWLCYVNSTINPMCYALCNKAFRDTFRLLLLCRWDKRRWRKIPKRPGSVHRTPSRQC
Outline: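 Stable CHO line expressing human M1 receptor with CRE-driven luciferase, serum-starved overnight, then exposed to increasing compound concentrations plus an EC20 of acetylcholine in OptiMEM for 4 hours at 37° C. Luciferase read after lysis, normalized to maximal acetylcholine response; EC50 is concentration giving 50% stimulation.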

[2] = Rodent pharmacokinetic study; assay type: in vivo, Male Wistar rats; conditions: male, Wistar, rat, plasma
Method: Rodent Pharmacokinetic Study
Male Wistar rats (260±50 grams) were used as experimental animals. Animals were housed individually in polypropylene cage. Two days prior to study, male Wistar rats were anesthetized with isoflurane for surgical placement of jugular vein catheter. Rats were randomly divided for oral (3 mg/kg) and intravenous (i.v) (1 mg/kg) dosing (n=3/group) and fasted overnight before oral dosing (p.o.). However, rats allocated to intravenous (i.v.) dosing food and water was provided ad libitum.
At pre-determined point, blood was collected through jugular vein and replenished with an equivalent volume of normal saline. Collected blood was transferred into a labeled eppendorf tube containing 10 μL of heparin as an anticoagulant. Typically blood samples were collected at following time points: 0.08, 0.25, 0.5, 1, 2, 4, 6, 8, and 24 hours post dose. Blood was centrifuged at 4000 rpm for 10 minutes. Plasma was separated and stored frozen at −80° C. until analysis. The concentrations of the test compounds were quantified in plasma by qualified LC-MS/MS method using suitable extraction technique. The test compounds were quantified in the calibration range around 1-1000 ng/mL in plasma. Study samples were analyzed using calibration samples in the batch and quality control samples spread across the batch.
Pharmacokinetic parameters Cmax, AUCt, T1/2, clearance and bioavailability (F) were calculated by non-compartmental model using standard non-compartmental model by using Phoenix WinNonlin 6.0.2 or 6.0.3 version Software package.

[3] = Rodent brain penetration study; assay type: in vivo, Male Wistar rats; conditions: male, Wistar, brain and plasma, po; rat, 3 mg/kg, p.o. @ 1.0 hr, brain-plasma ratio; read-out: Single dose Rat Brain Penetration (Cb/Cp)
Method: Rodent Brain Penetration Study
Male Wistar rats (260±40 grams) were used as experimental animals. Three animals were housed in each cage. Animals were given water and food ad libitum throughout the experiment and maintained on a 12 hours light/dark cycle.
Brain penetration was determined in discrete manner in rats. One day prior to dosing day, male Wistar rats were acclimatized and randomly grouped according to their weight. At each time point (0.5, 1 and 2 hours) n=3 animals were used.
The test compounds were suitably preformulated and administered orally at (free base equivalent) 3 mg/kg. Blood samples were removed via cardiac puncture by using isoflurane anesthesia. The animals were sacrificed to collect brain tissue. Plasma was separated and brain samples were homogenized and stored frozen at −20° C. until analysis. The concentrations of the test compounds in plasma and brain were determined using LC-MS/MS method.
The test compounds were quantified in plasma and brain homogenate by qualified LC-MS/MS method using suitable extraction technique. The test compounds were quantified in the calibration range of 1-500 ng/mL in plasma and brain homogenate. Study samples were analyzed using calibration samples in the batch and quality control samples spread across the batch.

[4] = system: Male Wistar rats; assay: Object recognition task model; assay type: in vivo; conditions: rat, 3 mg/kg, p.o.
Method: Object Recognition Task Model
The cognition enhancing properties of compounds of this invention were estimated by using this model.
Male Wistar rats (8-10 weeks old) were used as experimental animals. Four animals were housed in each cage. Animals were kept on 20% food deprivation from a day prior to experimentation. Water was provided ad libitum throughout the experiment. Animals were maintained on a 12 hours light/dark cycle in temperature and humidity controlled room. The experiment was carried out in a circular or square arena made up of acrylic. Rats were habituated to individual arenas for up to 1 hour in the absence of any objects on day 1.
One group of 12 rats received vehicle and another set of animals received compound of the formula (I), before the familiar (T1) and choice (T2) trials. During the familiarization phase, (T1), the rats were placed individually in the arena for 3 minutes, in which two identical objects (a1 and a2) were positioned 10 cm from the wall. 24 hours after T1, trial for long-term memory test was performed. The same rats were placed in the same arena as they were placed in T1 trial. During the choice phase (T2) rats were allowed to explore the arena for 3 minutes in presence of a copy of familiar object (a3) and one novel object (b). During the T1 and T2 trial, explorations of each object (defined as sniffing, licking, chewing or having moving vibrissae whilst directing the nose towards the object at a distance of less than 1 cm) were recorded using stopwatch.
T1 is the total time spent exploring the familiar objects (a1+a2).
T2 is the total time spent exploring the familiar object and novel object (a3+b).
The object recognition test was performed as described by Ennaceur, A., Delacour, J., 1988, A new one-trial test for neurobiological studies of memory in rats˜Behavioural data, Behav. Brain Res., 31, 47-59.

[5] = choice trial T2, 24 hours after T1

## Cn1cc(-c2ccc(Cc3cc(C(=O)N[C@H]4CCCC[C@@H]4O)n4ncccc34)cc2)cn1 [Example 32, N-(cis-1S,2S-2-Hydroxycyclohexyl)-5-[4-(1-methyl-1H-pyrazol-4-yl)-benzyl]-pyrrolo [1,2-b]pyridazine-7-carboxamide]
[1]
  EC50: 0.066 µM
[2]; iv, i.v. 1 mg/kg
  AUC(0-t): 3260 ± 802 ng·h/mL
  half-life: 3.2 ± 1.2 h
  clearance: 5.2 ± 1.4 mL/min/kg
[2]; oral 3 mg/kg vs i.v. 1 mg/kg, bioavailability
  bioavailability: 50 ± 17%
[2]; oral 3 mg/kg
  AUC(0-t): 4900 ± 1640 ng·h/mL
  Cmax: 650 ± 224 ng/mL
  half-life: 3.2 ± 0.4 h
[3]
  Kp at 1 h: 0.15 ± 0.02
[4]
  Inference: Active
[4]; [5]
  Exploration time mean ± S.E.M, Familiar object: 11.64 ± 2.16 s
  Exploration time mean ± S.E.M, Novel object: 19.81 ± 2.96 s
